Measured values from patent US9701627B2, “LRRK2 GTP binding inhibitors for treatment of Parkinson's disease and neuroinflammatory disorders” (University of Maryland, Baltimore, priority 2014, dated 2017).

Assays:
LRRK2 [1] = assay: LRRK2 GTP binding assay (GTP-agarose pull-down from lysates of transfected HEK293T cells); design: species or system human; conditions: for effect on wild type and PD-linked mutant LRRK2 GTP-binding activity: 10 μM
Procedure: LRRK2 kinase assay was adapted from previous studies using autophosphorylation of cell lysates or brain homogenates. Briefly, HEK 293T were transiently transfected with various LRRK2 variants or kinase domain fragments for 36 h, followed by […] serum starvation for 12 h, and then treated with compound 70 and 68 for 1 h. The cells were harvested using lysis buffer (Cell Signaling). Mouse brains were homogenated using RIPA buffer (Cell Signaling). The resulting cell lysates or brain homogenates were immunoprecipitated using anti-Flag antibodies. The immunoprecipitates were subjected to Western blot using anti-phosphorylation LRRK2 antibodies at S935 and S2032 residues as described previously. In some cases, immunoprecipitates were incubated with kinase reaction buffer for 90 min at 30° C. containing 50 mM MgCl2, 500 μM ATP, and 10 μCi of [γ-^32P]ATP (3,000 Ci/mmol) followed by 4-12% SDS/PAGE separation and blotted onto PVDF membranes. Quantification was performed with a phosphoimager (Bio-Rad Molecular Imager FX). GTP binding assays were performed. […] The resulting beads were washed three times with cell lysis buffer, and bound protein was eluted by adding SDS-PAGE sample buffer and heating for 10 min at 72° C. Precipitates were subjected to Western blot analysis using anti-Flag antibodies.
GTP binding assays were performed using GTP-agarose beads (Sigma) as described previously. Lysates of HEK 293T cells expressing LRRK2 proteins were incubated with 68 or FX2149 at various concentrations for 1 h. The GTP-agarose beads were added for an additional 2 h. The samples were subjected to Western blot analysis using anti-Flag antibodies. LRRK2 kinase assays were performed using LRRK2 phosphorylation and in vitro ^32P incorporation methods as described previously.

LRRK2 [2] = biological target: T1, LRRK2 (Mus musculus, UniProt Q5S006, G2019S); assay: brain LRRK2 GTP binding in G2019S-LRRK2-BAC transgenic mice; type: in vivo; conditions: for effect on brain LRRK2 GTP binding activity: 1 h after injection
T1 construct: tissue Jackson Laboratory 012467; host or cells: brain homogenate of G2019S-LRRK2-BAC transgenic mice
Procedure: (§1) To assess whether 70 and 68 alter LRRK2 activities in vivo, G2019S-LRRK2-BAC transgenic mice were used. […] Only the effects of 68 on LRRK2 functions were tested in vivo using G2019S-LRRK2-BAC transgenic mice. Vehicle or 68 at 10 and 20 mg/kg was injected intraperitoneally for one hour. Mouse brain homogenates were subjected to LRRK2 autophosphorylation and GTP binding assays.
LRRK2 kinase assay was adapted from previous studies using autophosphorylation of cell lysates or brain homogenates. Briefly, HEK 293T were transiently transfected with various LRRK2 variants or kinase domain fragments for 36 h, followed by […] serum starvation for 12 h, and then treated with compound 70 and 68 for 1 h. The cells were harvested using lysis buffer (Cell Signaling). Mouse brains were homogenated using RIPA buffer (Cell Signaling). The resulting cell lysates or brain homogenates were immunoprecipitated using anti-Flag antibodies. The immunoprecipitates were subjected to Western blot using anti-phosphorylation LRRK2 antibodies at S935 and S2032 residues as described previously. In some cases, immunoprecipitates were incubated with kinase reaction buffer for 90 min at 30° C. containing 50 mM MgCl2, 500 μM ATP, and 10 μCi of [γ-^32P]ATP (3,000 Ci/mmol) followed by 4-12% SDS/PAGE separation and blotted onto PVDF membranes. Quantification was performed with a phosphoimager (Bio-Rad Molecular Imager FX). GTP binding assays were performed. Cell lysates or brain homogenates (100 μg protein/per reaction) were incubated with vehicle or compounds at 1-50 μM concentration for 1 h followed by addition of GTP-agarose beads (Sigma) for an additional 2 h at 4° C. The resulting beads were washed three times with cell lysis buffer, and bound protein was eluted by adding SDS-PAGE sample buffer and heating for 10 min at 72° C. Precipitates were subjected to Western blot analysis using anti-Flag antibodies.
To assess the effects of FX2149 on LRRK2 in brains compared with 68, both 68 and FX2149 were injected intraperitoneally into G2019S-BAC-LRRK2 transgenic mice at 10 and 20 mg/kg doses. One hour after the injection, the mouse brain homogenates were subjected to LRRK2 GTP binding and kinase assays. Both 68 (20 mg/kg) and FX2149 (10 mg/kg) reduced LRRK2 GTP binding activity in mouse brains (FIGS. 32 and 33). […] To further confirm the effect of FX2149, we also assessed a LRRK2 downstream effector, 4E-BP phosphorylation. 4E-BP is a […] that can be phosphorylated by LRRK2. […] FX2149 at a 10 mg/kg dose reduced 4E-BP up to 15% of the untreated control group, while 68 at a 20 mg/kg dose reduced 4E-BP up to 15% of the untreated control group.

[3] = tested on: SH-SY5Y cells expressing G2019S-LRRK2; assay: SH-SY5Y cell viability assay (G2019S-LRRK2-induced neuronal degeneration); type: cell-based, human
Procedure: Mouse primary cortical neurons were derived from CD-1 outbred mice (The Jackson Laboratory) at embryonic day 16 and cultured on 24 well plates coated with laminin- and poly-D-lysine-coated plates (BD Biosource, San Diego). Neurons were grown in neurobasal medium containing B-27 supplement, Glutamax, and penicillin/streptomycin. LRRK2 constructs were transfected into mouse primary cortical neurons using Lipofectamine 2000 (Invitrogen) according to the manufacturer's protocol. Cell viability assays were conducted. pcDNA3.1-GFP and FLAG-LRRK2 constructs at 1:15 ratio were cotransfected into SH-SY5Y cells (neurons) in 10% FBS OPTI-I media for 24 h. The media were changed to DMEM containing N2 supplement for 24 h. Cell viability was measured by counting GFP-positive viable cells (neurons) from 20 randomly selected fields using fluorescence microscopy. Viable cells (neurons) with one smooth extension (neurite) twice the length of the cell body were counted.
SH-SY5Y cell viability assays were conducted as described. […] Cell viability was measured by counting the healthy viable cells that contained at least one smooth extension (neurite) that was twice the length of the cell body from 20 randomly selected fields using fluorescence microscopy. […] The quantification for LRRK2 toxicity was performed by an investigator who was blind to transfection groups.

LRRK2 [4] = biological target: T1, LRRK2; assay: brain LRRK2 phosphorylation (kinase activity) in G2019S-LRRK2-BAC transgenic mice; type: in vivo; conditions: 1 h after injection
Procedure: as §1
LRRK2 kinase assay was adapted from previous studies using autophosphorylation of cell lysates or brain homogenates. Briefly, HEK 293T were transiently transfected with various LRRK2 variants or kinase domain fragments for 36 h, followed by no serum starvation for 12 h, and then treated with compound 70 and 68 for 1 h. The cells were harvested using lysis buffer (Cell Signaling). Mouse brains were homogenated using RIPA buffer (Cell Signaling). The resulting cell lysates or brain homogenates were immunoprecipitated using anti-Flag antibodies. […] Quantification was performed with a phosphoimager (Bio-Rad Molecular Imager FX). […]
To assess the effects of FX2149 on LRRK2 in brains compared with 68, both 68 and FX2149 were injected intraperitoneally into G2019S-BAC-LRRK2 transgenic mice at 10 and 20 mg/kg doses. […] To further confirm the effect of FX2149, we also assessed a LRRK2 downstream effector, 4E-BP phosphorylation. […]

[5] = tested on: SH-SY5Y cells expressing mutant G2019S-LRRK2; assay: TUNEL assay in SH-SY5Y cells expressing mutant LRRK2; type: cell-based, human; conditions: 100 nM
Procedure: Expression of mutant G2019S-LRRK2 led to neuronal degeneration in both SH-SY5Y and mouse primary cortical neurons as assessed by cell viability and DNA fragmentation (TUNEL) assays as previously described. […] To further confirm these findings, mouse primary cortical neurons were used to assess the effects of 70 and 68. Treatment of 70 (2 and 5 nM) and 68 (5 and 10 nM) protected against mutant LRRK2-induced neuronal degeneration (FIG. 15, panels (a) and (c)). Moreover, 70 and 68 both decreased the TUNEL-positive SH-SY5Y cells expressing mutant LRRK2 (FIG. 15, panel (d)).
SH-SY5Y cell viability assays were conducted as described. Cells were co-transfected with GFP and various pcDNA3.1-LRRK2 plasmids at a 1:15 ratio for 24 h in 10% FBS OPTI-I media and then changed to DMEM with N2 supplement for 24 h. Compounds were added after 4-h transfection. Cell viability was measured by counting the healthy viable cells that contained at least one smooth extension (neurite) that was twice the length of the cell body from 20 randomly selected fields using fluorescence microscopy. TUNEL assays were performed according to the manufacturer's instructions as described previously. The experiments were repeated three times in duplicate. The quantification for LRRK2 toxicity was performed by an investigator who was blind to transfection groups.

G2019S-LRRK2 = biological target: T2, G2019S-LRRK2 (Homo sapiens, UniProt Q5S007, G2019S); assay: LRRK2 phosphorylation (kinase) assay in HEK293T cells expressing G2019S-LRRK2; type: cell-based; conditions: 1 h
T2 construct: expressed in transfected cells; host or cells: HEK293T
Procedure: LRRK2 kinase assay was adapted from previous studies using autophosphorylation of cell lysates or brain homogenates. Briefly, HEK 293T were transiently transfected with various LRRK2 variants or kinase domain fragments for 36 h, followed by no serum starvation for 12 h, and then treated with compound 70 and 68 for 1 h. The cells were harvested using lysis buffer (Cell Signaling). Mouse brains were homogenated using RIPA buffer (Cell Signaling). The resulting cell lysates or brain homogenates were immunoprecipitated using anti-Flag antibodies. The immunoprecipitates were subjected to Western blot using anti-phosphorylation LRRK2 antibodies at S935 and S2032 residues as described previously. In some cases, immunoprecipitates were incubated with kinase reaction buffer for 90 min at 30° C. containing 50 mM MgCl2, 500 μM ATP, and 10 μCi of [γ-^32P]ATP (3,000 Ci/mmol) followed by 4-12% SDS/PAGE separation and blotted onto PVDF membranes. Quantification was performed with a phosphoimager (Bio-Rad Molecular Imager FX). GTP binding assays were performed. […]
For LRRK2 phosphorylation assays, HEK293T cells were transfected with various LRRK2 variants for 36 h, then were incubated in media without serum for 12 hours. […] The LRRK2 autophosphorylation with ^32P incorporation was separated by SDS/PAGE gel and quantified with a phosphoimager (Bio-Rad Molecular Imager).

[6] = tested on: LPS-induced microglia activation and LRRK2 upregulation; assay: LPS-based mouse neuroinflammation model, immunohistochemistry of substantia nigra; type: in vivo
Procedure: G2019S-LRRK2-BAC (Jackson, Lab. Cat: 012467) transgenic mice were food deprived for 4 h before surgery. There were 4 to 6 mice in each experimental group. Mice were anesthetized with isoflurane. LPS ([…] containing 15,000 endotoxin units, Sigma) was injected into the substantia nigra pars compacta unilaterally with a 1 μl volume at 0.2 μl/min flow rate as described previously. The stereotaxic coordinates were −3.4 anteroposterior (AP), −1.1 ML, and −3.9 DV with respect to bregma. After injection, the needle was kept in place for 5 min before withdrawal to avoid LPS leakage up the cannula track. […] Then 68 was injected twice daily for three days. The mice were perfused with 4% paraformaldehyde (PFA) in PBS and the brains were dissected and frozen in isopentane and stored in a −80° C. freezer for immunostaining Animal usage was approved by the University of Maryland School of Pharmacy.
Mice were perfused with saline and 4% paraformaldehyde. Frozen mouse brains were sectioned through the substantia nigra at 30 μm and the sections were subjected to immunohistochemical analysis as described previously. Briefly, frozen sections were placed in 0.6% H2O2 in methanol for 10 min followed by 5% normal goat serum (Sigma) to block non-specific reactions. Sections were then sequentially incubated with primary antibodies and biotinylated anti-rabbit secondary antibodies (Vector Laboratories) and avidin-biotin-peroxidase complex (ABC Elite kit, Vector Laboratories). Anti-LRRK2 (MJFF), anti-phosphorylated LRRK2 S935 (MJFF), and anti-isolectin antibodies were used as primary antibodies. Isolectin-B4:FITC or Isolectin-B4:Biotin were from Sigma. Some tissue sections were visualized by peroxidase reaction using diaminobenzidine (DAB, Sigma). Some tissue sections were probed with Alexa Fluor 488 goat anti-mouse (rabbit) IgG and Alexa Fluor 568 goat anti-mouse (rabbit) IgG (Invitrogen) as secondary antibodies. The specificity of the immunostaining was checked by incubating adjacent sections with each preabsorbed primary antibody. […] The density of red and green fluorescence in the 6 consecutive sections crossing the LPS injection site of each mouse was quantified using NIH image-J software. Six microscope field images (20×) from one brain section were subjected to fluorescence density quantification. […]
G2019S-LRRK2-BAC transgenic mice were anesthetized with isoflurane and injected with LPS (15,000 endotoxin units, 5 μg, Sigma) for each mouse in the substantia nigra pars compacta (SN) unilaterally as described previously. […] Some sections were added with anti-rabbit (mouse) biotinylated secondary antibody and avidin-biotin-peroxidase complex (Vector Laboratories), and detected by diaminobenzidine (DAB, Sigma). […]

T1 sequence (Q5S006 whole entry G2019S): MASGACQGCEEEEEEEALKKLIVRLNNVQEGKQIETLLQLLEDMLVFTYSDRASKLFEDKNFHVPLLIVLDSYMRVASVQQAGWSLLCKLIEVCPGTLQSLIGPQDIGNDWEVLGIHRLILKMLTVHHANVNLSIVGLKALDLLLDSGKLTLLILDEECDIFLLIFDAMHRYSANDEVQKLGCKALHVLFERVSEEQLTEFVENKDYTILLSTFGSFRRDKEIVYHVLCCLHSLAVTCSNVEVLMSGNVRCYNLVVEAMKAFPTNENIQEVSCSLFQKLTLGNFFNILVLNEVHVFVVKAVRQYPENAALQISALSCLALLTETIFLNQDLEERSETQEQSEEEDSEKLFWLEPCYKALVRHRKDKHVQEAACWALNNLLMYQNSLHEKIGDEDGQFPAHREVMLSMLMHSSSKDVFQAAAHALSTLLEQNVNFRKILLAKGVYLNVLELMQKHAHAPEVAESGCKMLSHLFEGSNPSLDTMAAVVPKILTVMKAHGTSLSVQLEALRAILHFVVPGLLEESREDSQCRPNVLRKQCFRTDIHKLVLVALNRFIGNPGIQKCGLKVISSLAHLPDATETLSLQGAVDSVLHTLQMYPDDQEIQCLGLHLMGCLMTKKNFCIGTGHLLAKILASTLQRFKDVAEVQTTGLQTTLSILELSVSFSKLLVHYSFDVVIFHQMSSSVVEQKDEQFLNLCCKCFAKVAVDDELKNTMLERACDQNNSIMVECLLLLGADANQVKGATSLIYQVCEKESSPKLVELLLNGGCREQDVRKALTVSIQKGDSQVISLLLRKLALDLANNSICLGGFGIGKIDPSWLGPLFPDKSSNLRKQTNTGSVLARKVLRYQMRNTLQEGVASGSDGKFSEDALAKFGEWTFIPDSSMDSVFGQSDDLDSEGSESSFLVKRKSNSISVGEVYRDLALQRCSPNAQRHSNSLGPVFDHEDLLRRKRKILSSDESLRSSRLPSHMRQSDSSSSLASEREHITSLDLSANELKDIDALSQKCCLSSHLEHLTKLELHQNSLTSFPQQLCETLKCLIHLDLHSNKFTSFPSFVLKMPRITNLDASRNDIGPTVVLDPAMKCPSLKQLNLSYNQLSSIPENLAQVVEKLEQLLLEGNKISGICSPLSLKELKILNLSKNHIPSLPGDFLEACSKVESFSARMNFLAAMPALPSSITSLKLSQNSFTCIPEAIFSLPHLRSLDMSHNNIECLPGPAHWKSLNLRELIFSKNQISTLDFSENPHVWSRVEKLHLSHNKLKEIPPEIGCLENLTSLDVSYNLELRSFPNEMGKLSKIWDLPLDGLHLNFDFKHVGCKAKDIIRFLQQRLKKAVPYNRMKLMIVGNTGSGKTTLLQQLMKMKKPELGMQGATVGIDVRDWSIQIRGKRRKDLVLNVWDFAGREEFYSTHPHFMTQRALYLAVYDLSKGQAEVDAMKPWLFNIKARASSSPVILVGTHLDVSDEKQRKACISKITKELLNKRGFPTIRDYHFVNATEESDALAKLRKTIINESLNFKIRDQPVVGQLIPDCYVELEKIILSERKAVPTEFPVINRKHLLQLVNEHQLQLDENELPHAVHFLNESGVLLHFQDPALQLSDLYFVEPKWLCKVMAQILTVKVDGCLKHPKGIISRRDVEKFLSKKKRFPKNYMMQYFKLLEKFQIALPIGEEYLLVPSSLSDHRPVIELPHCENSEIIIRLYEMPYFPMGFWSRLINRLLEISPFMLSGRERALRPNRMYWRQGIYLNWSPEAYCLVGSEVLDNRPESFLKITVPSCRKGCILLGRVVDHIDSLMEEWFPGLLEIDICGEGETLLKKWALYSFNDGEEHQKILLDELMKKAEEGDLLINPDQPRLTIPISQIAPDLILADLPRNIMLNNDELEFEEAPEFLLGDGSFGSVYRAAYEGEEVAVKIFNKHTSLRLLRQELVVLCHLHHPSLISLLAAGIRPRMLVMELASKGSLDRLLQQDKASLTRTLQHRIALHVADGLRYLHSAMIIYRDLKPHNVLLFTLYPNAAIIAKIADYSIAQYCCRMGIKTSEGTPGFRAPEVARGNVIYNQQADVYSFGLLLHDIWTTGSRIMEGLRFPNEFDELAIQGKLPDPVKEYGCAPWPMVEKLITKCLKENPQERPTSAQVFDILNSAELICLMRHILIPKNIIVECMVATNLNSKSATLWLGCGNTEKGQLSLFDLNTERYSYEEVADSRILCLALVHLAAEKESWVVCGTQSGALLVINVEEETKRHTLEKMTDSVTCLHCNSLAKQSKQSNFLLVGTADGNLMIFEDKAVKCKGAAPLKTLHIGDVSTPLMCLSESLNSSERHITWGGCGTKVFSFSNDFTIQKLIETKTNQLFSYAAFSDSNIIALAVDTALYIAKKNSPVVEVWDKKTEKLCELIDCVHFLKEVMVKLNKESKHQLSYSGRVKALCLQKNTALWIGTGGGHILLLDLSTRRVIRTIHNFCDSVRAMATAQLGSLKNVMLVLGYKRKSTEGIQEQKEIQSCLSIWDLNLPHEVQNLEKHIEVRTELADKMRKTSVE
T2 sequence (Q5S007 whole entry G2019S): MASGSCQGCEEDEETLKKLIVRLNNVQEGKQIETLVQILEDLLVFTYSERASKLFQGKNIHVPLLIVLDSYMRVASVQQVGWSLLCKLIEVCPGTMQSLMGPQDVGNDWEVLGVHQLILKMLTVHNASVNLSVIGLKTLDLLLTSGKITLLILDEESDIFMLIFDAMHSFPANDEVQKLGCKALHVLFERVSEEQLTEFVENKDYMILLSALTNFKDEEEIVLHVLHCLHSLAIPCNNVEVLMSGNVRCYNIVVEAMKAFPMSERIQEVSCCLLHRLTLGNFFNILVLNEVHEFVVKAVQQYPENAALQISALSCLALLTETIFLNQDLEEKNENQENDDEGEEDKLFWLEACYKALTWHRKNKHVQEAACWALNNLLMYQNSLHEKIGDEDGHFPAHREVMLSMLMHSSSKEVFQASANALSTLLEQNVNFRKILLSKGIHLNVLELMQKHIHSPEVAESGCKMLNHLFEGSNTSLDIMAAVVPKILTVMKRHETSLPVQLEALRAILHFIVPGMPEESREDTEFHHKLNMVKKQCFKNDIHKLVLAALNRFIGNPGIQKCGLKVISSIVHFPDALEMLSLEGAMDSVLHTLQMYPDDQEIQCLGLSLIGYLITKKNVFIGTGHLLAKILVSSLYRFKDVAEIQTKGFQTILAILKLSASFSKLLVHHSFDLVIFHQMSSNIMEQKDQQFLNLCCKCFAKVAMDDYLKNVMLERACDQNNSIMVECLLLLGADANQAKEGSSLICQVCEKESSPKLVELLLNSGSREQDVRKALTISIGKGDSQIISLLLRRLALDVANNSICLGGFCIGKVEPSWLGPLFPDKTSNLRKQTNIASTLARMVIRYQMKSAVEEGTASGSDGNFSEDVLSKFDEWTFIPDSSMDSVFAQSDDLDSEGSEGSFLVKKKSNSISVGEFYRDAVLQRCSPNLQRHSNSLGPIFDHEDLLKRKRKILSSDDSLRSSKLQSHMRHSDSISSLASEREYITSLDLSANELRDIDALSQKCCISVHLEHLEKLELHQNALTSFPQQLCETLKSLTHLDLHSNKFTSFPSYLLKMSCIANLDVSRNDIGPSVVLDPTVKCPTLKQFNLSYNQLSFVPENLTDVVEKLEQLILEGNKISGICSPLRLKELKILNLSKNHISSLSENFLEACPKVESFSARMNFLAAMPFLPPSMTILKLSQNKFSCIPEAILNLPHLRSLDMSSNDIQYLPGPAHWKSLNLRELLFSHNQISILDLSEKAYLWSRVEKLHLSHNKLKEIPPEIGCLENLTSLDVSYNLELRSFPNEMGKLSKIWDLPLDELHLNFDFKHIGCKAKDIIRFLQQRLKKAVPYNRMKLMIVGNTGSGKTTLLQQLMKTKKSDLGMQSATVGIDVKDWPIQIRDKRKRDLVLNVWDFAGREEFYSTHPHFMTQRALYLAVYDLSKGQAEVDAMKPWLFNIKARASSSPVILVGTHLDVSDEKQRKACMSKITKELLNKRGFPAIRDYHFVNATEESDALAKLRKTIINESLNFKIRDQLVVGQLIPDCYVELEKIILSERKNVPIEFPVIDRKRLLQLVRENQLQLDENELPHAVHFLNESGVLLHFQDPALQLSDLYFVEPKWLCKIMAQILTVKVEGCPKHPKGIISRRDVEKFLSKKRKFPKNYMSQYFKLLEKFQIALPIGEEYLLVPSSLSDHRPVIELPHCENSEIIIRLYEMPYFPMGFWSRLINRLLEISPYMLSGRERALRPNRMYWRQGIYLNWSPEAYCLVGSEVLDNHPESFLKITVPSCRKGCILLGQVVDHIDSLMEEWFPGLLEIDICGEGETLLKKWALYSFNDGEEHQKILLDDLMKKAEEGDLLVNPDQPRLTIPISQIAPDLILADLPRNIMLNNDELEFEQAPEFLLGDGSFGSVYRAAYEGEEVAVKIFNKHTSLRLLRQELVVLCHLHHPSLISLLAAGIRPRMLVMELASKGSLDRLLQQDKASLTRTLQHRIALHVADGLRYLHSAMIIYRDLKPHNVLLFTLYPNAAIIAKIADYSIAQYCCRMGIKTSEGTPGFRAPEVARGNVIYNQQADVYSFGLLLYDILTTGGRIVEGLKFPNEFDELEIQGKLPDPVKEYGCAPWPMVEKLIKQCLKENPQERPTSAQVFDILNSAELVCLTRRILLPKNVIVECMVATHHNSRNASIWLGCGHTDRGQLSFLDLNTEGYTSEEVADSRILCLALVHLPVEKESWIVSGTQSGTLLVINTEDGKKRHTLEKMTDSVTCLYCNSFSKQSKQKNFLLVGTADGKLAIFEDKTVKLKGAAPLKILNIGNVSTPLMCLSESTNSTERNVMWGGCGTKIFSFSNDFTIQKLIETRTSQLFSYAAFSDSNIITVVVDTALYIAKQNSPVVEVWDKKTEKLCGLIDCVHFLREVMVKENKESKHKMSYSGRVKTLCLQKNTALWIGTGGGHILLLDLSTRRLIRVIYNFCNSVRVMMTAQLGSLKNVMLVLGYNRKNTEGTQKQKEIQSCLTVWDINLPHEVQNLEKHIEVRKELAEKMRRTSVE

## O=C1Nc2ccc(I)cc2/C1=C/c1cc(Br)c(O)c(Br)c1 [GW5074, reference compound]
LRRK2 [1]
  effect on wild type and PD-linked mutant LRRK2 GTP-binding activity: did not alter

## CCCNC(=O)c1cccc(NS(=O)(=O)c2cccnc2)c1 [FX2149, N-propyl-3-(pyridine-3-sulfonamido)benzamide]
LRRK2 [2]; 10 mg/kg i.p.
  effect on brain LRRK2 GTP binding activity: reduced
LRRK2 [2]; after i.p. injection
  brain (BBB) penetration inferred from brain LRRK2 GTP binding and kinase inhibition: taken up into brains at a greater extent
LRRK2 [2]; mouse, in vivo
  improvement of in vivo efficacy over 68: more than 2 fold
LRRK2 [1]; 10 nM
  reduction of LRRK2 GTP binding activity: ~90%
LRRK2 [1]; 1 and 10 nM
  effect on LRRK2 binding with GTP: significantly reduced
  effect on mutant LRRK2 variants (G2019S and R1441C) bound with GTP: reduced
[3]; 50-200 nM
  protection against mutant LRRK2-induced neurodegeneration: protected
[3]; treated for 48 hours
  viability of cells expressing G2019S-LRRK2 compared with vehicle treated cells: significantly increased
LRRK2 [4]; 10 mg/kg i.p.
  effect on brain LRRK2 kinase activity: significantly reduced
[5]
  TUNEL-positive cells expressing mutant G2019S-LRRK2: significantly reduced
G2019S-LRRK2; 100 nM
  reduction of G2019S-LRRK2 kinase activity (phosphorylation at S935 and S2032): ~90%
[6]; 10 mg/kg
  reduction of LPS-induced microglia activation compared with vehicle treated LPS mice: 57%
[6]; 10 mg/kg i.p.
  LPS-induced LRRK2-positive immunostaining compared with vehicle controls: significantly reduced
  anti-phosphorylated-LRRK2 immunoactivity: significantly reduced
[6]; 10 mg/kg i.p., twice daily for three days
  isolectin B4 immunoactivity compared with the LPS alone treated group: ~43%

## CC(C)NC(=O)c1cccc(NS(=O)(=O)c2cccnc2)c1 [FX2151, N-isopropyl-3-(pyridine-3-sulfonamido)benzamide]
LRRK2 [2]; 20 mg/kg i.p.
  effect on brain LRRK2 GTP binding activity: did not alter
LRRK2 [1]
  effect on wild type and PD-linked mutant LRRK2 GTP-binding activity: did not alter
LRRK2 [4]; 20 mg/kg i.p.
  effect on brain LRRK2 phosphorylation (kinase activity): did not alter
G2019S-LRRK2; 10 μM
  effect on LRRK2 phosphorylation: did not alter
